In patent US20110288154A1, “RNA Interference Mediated Inhibition of Epithelial Sodium Channel (ENaC) Gene Expression Using Short Interfering Nucleic Acid (siNA)” (MERCK & CO., INC., priority 2008, published 2011):
[invAb] = inverted abasic (deoxyabasic) cap; m = 2'-O-methyl; r = 2'-OH (RNA); f = 2'-fluoro

Columns and labels:
ENaCα mRNA = test: Screening of ENaCα siNAs in human A549 cells (quantitative RT-PCR); format: cell-based; parameters: Percent Reduction of the ENaCα mRNA relative to a non-targeting control siNA (NTC): concentration or dose not given beside the values; settings: human A549 cells, n = 3; for Avg ENaCα Expression: 25 nM siNA with Lipofectamine 2000, harvested 24 hours post-transfection; for Mean (level of ENaCα expression normalized to the level of GAPDH) / Percent Reduction of the ENaCα mRNA relative to a non-targeting control siNA (NTC) / Avg GAPDH Expression: 24 hours post-transfection; for Avg GAPDH Expression: housekeeping gene used for normalisation
Procedure: siNA constructs (Table 1b) may be tested for efficacy in reducing ENaC RNA expression in, for example, A549 human lung carcinoma cells. A549 (human; ATCC cat# CCL-185) cells were cultured at 37° C. in the presence of 5% CO2 and grown in Ham's F12K medium with 2 mM L-glutamine adjusted to contain 1.5 g/L sodium bicarbonate and supplemented with fetal bovine serum at a final concentration of 10% and 100 U/mL penicillin. The A549 cells were plated approximately 24 hours before transfection in 96-well plates at 7,500 cells/well, 100 μl/well. After 24 hours complexes containing siNA and Lipofectamine 2000 (Invitrogen) were created as follows: a solution of Lipofectamine 2000 in OPTI-MEM was prepared containing Lipofectamine 2000 at a final concentration of 14 μg/ml. In parallel, solutions of the siNAs were prepared in OPTI-MEM at a final concentration of 150 nM. After both solutions were incubated at 20° C. for 20 minutes an equal volume of the siNA solutions and the Lipofectamine 2000 solution were added together for each of the siNAs. The resultant solution has the siNAs at a final concentration of 75 nM and Lipofectamine 2000 at a final concentration of 7 μg/ml. This solution was incubated at 20° C. for 20 minutes. After incubation 50 μl of the solution were added to each of the wells (in triplicate). The final concentration of siNA in each well was 25 nM and the final concentration of Lipofectamine 2000 in each well was 2.33 μg/ml. […] Dose response curves were determined in a similar manner with each concentration being done in triplicate and maintaining a constant amount of Lipofectamine 2000 in each transfection.
RNA was extracted from 96-well plates using the Invitek Invisorb RNA Cell HTS 96 Kit/C (Cat# 70619000) with a slightly modified protocol. The details of the protocol for isolating RNA from each plate are described as follows:
1) Aspirate media with rake 2) Add 150 ul/well Lysis buffer 3) Place on plate shaker for 1 minute 4) Place DNA binding plate on top of 0.5 ml collection plate 5) Pipette 190 ul up and down twice and add to DNA binding plate 6) Cover plate 7) Centrifuge plates 4 minutes at 4000 RPM 8) Discard DNA binding plate 9) Place the RNA binding plate on top of 2 ml collection plate 10) Add 150 ul/well of Binding Buffer R to 0.5 ml collection plate 11) Move contents of 0.5 ml collection plate to RNA binding plate 12) Let incubate for 1 minute 13) Centrifuge plates 4 minutes at 4000 RPM 14) Add 600 ul/well of Wash Buffer R1 to RNA binding plate 15) Centrifuge plates 4 minutes at 4000 RPM 16) Dump wash buffer from 2 ml collection plate 17) Add 400 ul/well of Wash Buffer R2 to RNA binding plate 18) Centrifuge plates 4 minutes at 4000 RPM 19) Add 400 ul/well of Wash Buffer R2 to RNA binding plate 20) Centrifuge plates 10 minutes at 4000 RPM 21) Dump wash buffer from 2 ml collection plate 22) Centrifuge plates 3 minutes at 4000 RPM 23) Discard 2 ml collection plate and place RNA binding plate on to microtiter plate 24) Add 100 ul/well of elution buffer to RNA binding plate 25) Incubate for 2 minutes 26) Seal plate 27) Centrifuge plates 3 minutes at 4000 RPM 28) Discard RNA binding plate 29) Cover microtiter plate for storage in −80 freezer
A series of probes and primers were used to detect the various mRNA transcripts of the genes of ENaCa and GAPDH in mouse, rat, and human cell lines. The assays were performed on an ABI 7500 instrument, according to the manufacturer's instructions. Within each experiment, the baseline was set in the exponential phase of the amplification curve, and based on the intersection point of the baselines with the amplification curve, a Ct value was assigned by the instrument. This Ct value was then assigned a QTY value based on the Standard Curve. The standard curve in the various experiments herein used 1 ng to 300 ng of RNA extracted from the same cell line used for the experimental transfections. […]

rSCNN1A (r ENaCα) mRNA = test: Screening of ENaCα siNAs in Rat H-4-II-E cells (quantitative RT-PCR); format: cell-based; parameters: Percent Reduction of the r ENaCα mRNA relative to a non-targeting control siNA (NTCs) / Rat % KD (efficacy of ENaCα mRNA knockdown): concentration or dose not given beside the values; settings: Rat H-4-II-E cells, n = 3; for Mean (rSCNN1A expression normalized to the level of rGAPDH) / Percent Reduction of the r ENaCα mRNA relative to a non-targeting control siNA (NTCs) / Avg GAPDH Expression (rGAPDH): 24 hours post-transfection; for Avg ENaCα Expression (rSCNN1A): harvested 24 hours post-transfection; for Avg GAPDH Expression (rGAPDH): housekeeping gene used for normalisation
Procedure: A series of probes and primers were used to detect the various mRNA transcripts of the genes of ENaCa and GAPDH in mouse, rat, and human cell lines. The assays were performed on an ABI 7500 instrument, according to the manufacturer's instructions. Within each experiment, the baseline was set in the exponential phase of the amplification curve, and based on the intersection point of the baselines with the amplification curve, a Ct value was assigned by the instrument. This Ct value was then assigned a QTY value based on the Standard Curve. The standard curve in the various experiments herein used 1 ng to 300 ng of RNA extracted from the same cell line used for the experimental transfections.
All IC50 values were calculated from the data using GraphPad Prizm software, specifically a sigmoidal, variable slope curve for simple ligand binding. Also, unless otherwise indicated, all calculations of the efficacy and potency (e.g., % knockdown) of the siNAs were done relative to a non-targeting control siNA. If reported, P-values were computed using The Students t-test, including the Welch Correction for unequal variances.
In all of the calculations of the % knock-down of mRNA, the calculation was made relative to the normalized level of expression of the gene of interest in the samples treated with the non-targeting control (NTC) unless otherwise indicated. The gene of interest expression level was divided by the level of expression of GAPDH or 36B4 (depending on the species) in each sample. The three replicates for each condition in each experiment were averaged and the standard deviation of those samples was calculated. The following formula was then used to calculate the % of knock-down of the gene of interest:
The ENaCα siNAs were designed and synthesized as described previously. The siNAs were screened in three cell lines. Human A549 cells, mouse NIH 3T3 and Rat H-4-II-E cells. The data from the screen of ENaCa siNAs in all three species is shown in Tables 3a, 3b, 4a, 4b, 5a, and 5b and a summary of the data for certain siNA molecules is presented in Table 6. Each screen was performed at 24 hrs. The decision to use this time point was based upon the degree of knockdown of the mRNA seen at that time point.

Substance	Avg ENaCα Expression (ENaCα mRNA)	Mean (level of ENaCα expression normalized to the level of GAPDH) (ENaCα mRNA)	Percent Reduction of the ENaCα mRNA relative to a non-targeting control siNA (NTC) (ENaCα mRNA)	Avg GAPDH Expression (ENaCα mRNA)	Mean (rSCNN1A expression normalized to the level of rGAPDH) (rSCNN1A (r ENaCα) mRNA)	Percent Reduction of the r ENaCα mRNA relative to a non-targeting control siNA (NTCs) (rSCNN1A (r ENaCα) mRNA)	Avg ENaCα Expression (rSCNN1A) (rSCNN1A (r ENaCα) mRNA)	Avg GAPDH Expression (rGAPDH) (rSCNN1A (r ENaCα) mRNA)
B GccAGuGGAGccuGuGGuu TTB / AACcAcAGGcuccAcuGGcUU (sense GCCAGUGGAGCCUGUGGUUTT; antisense AACCACAGGCUCCACUGGCUU; siRNA; sense: DNA at AGT, 2'-fluoro at CU, [invAb] at 5' end, 3' end, backbone not given here; antisense: sugars from the 5' end rrrfmfmmmffffmffmmfmm, backbone not given here) [Site 1757]	66.53	0.66	0.0%	101.11	0.72	21.5%	29.36	40.49
B GccAuccGccuGGuGuGcu TTB / AGCAcAccAGGcGGAuGGcUU (sense GCCAUCCGCCUGGUGUGCUTT; antisense AGCACACCAGGCGGAUGGCUU; siRNA; sense: DNA at AGT, 2'-fluoro at CU, [invAb] at 5' end, 3' end, backbone not given here; antisense: sugars from the 5' end rrrmfmffmmmfmmrfmmfmm, backbone not given here) [Site 310]	68.10	1.57	−1.0%	45.78	0.92	28.3%	18.39	20.12
